According to US20100248223A1, “ASSESSING OUTCOMES FOR BREAST CANCER PATIENTS” (MAYO FOUNDATION FOR MEDICAL EDUCATION AND RESEARCH, priority 2006, published 2010):
Read-outs that look alike come from different tables or passages of the source. One block for each compound: values may come before it.

Assays:
CYP2D6 enzyme system = CYP2D6 enzyme system (Homo sapiens, UniProt P10635); settings: classification from cited literature; cited from earlier work
[1] = tested on: resected ER positive breast cancer; settings: for 9 year RFS rate / 5-year DFS: node negative
Excerpt: Patients. […] Postmenopausal women with node-negative disease were required to have stage T1c or T2N0M0 cancer and could be any age, whereas women with node-positive disease were required to be at least 65 years of age with a tumor stage T1 (any N) or T2N1M0. […] Patients were surgically treated with either a modified radical mastectomy or breast conservative therapy including lumpectomy, axillary nodal dissection, and radiation therapy. The axillary dissection must have involved at least levels I and II and the examination of at least 6 axillary nodes. […] Postlumpectomy radiation therapy consisted of a total cumulative breast dose of 5040 cGy in 28 fractions, and those with axillary nodal involvement also received radiation to the axilla and supraclavicular regions. Patients were classified as ER positive if resected breast tissue contained ≧10 fmol of ER polypeptide/mg cytosol protein or was positive for ER polypeptide by an immunohistochemical assay. All patients were randomized within 6 weeks of definitive surgery.
Patients were stratified based on axillary lymph node status (0, 1-3, 4-9 vs. 10 or more), age (<65 years vs. >65), primary tumor size (<3 cm vs. >3 cm), ER status (10-49 fmol vs. 50 fmol or greater vs. positive by immunohistochemical assay), and extent of surgery (mastectomy vs. breast conservation therapy).
Study Design and End Points. One objective of this study was to examine the relationship between the HOXB13:IL-17BR expression ratio and clinical outcomes of relapse-free survival, disease-free survival, and overall survival. Relapse-free survival (RFS) was defined as the time from randomization to documentation of the first of the following events: any recurrence (local, regional or distant) of breast cancer, a contralateral breast cancer or death. When estimating the distribution of RFS, patients who developed a non-breast second primary cancer (other than squamous or basal cell carcinoma of the skin, carcinoma in situ of the cervix, or lobular carcinoma in situ of the breast) prior to the diagnosis of a breast event were censored on the day their second primary was diagnosed. Patients who were alive without a breast recurrence, contralateral breast cancer or a second non-breast primary cancer were censored at the date of their last disease evaluation. Disease-free survival (DFS) was defined as the time from randomization to documentation of the first of the following events: any recurrence (local, regional or distant) of breast cancer, a contralateral breast cancer, a second primary cancer, or death due to any cause. Patients who were alive without any of these events were censored at the date of their last disease evaluation. Overall survival (OS) was estimated as the time from registration to death due to any cause.
Relapse-free (RF) time was defined as the time from randomization to documentation of a breast event where a breast event is any recurrence (local, regional, or distant) of breast cancer or the documentation of contralateral breast cancer (including ductal carcinoma in situ). When estimating the distribution of RF time, patients who developed a non-breast second primary cancer (other than squamous or basal cell carcinoma of the skin, carcinoma in situ of the cervix, or lobular carcinoma in situ of the breast) prior to the diagnosis of a breast event were censored on the day their second primary was diagnosed. Patients (alive or dead) without a breast recurrence, contralateral breast cancer or a second non-breast primary cancer were censored at the date of their last disease evaluation.
Disease-free survival (DFS) was defined as the time from randomization to documentation of the first of the following events: any recurrence (local, regional or distant) of breast cancer, the documentation of contralateral breast cancer, or death due to any cause.

[2] = patients with gene expression data (n=206), oral tamoxifen 20 mg daily for 5 years

Sequence of CYP2D6 enzyme system (P10635 whole entry): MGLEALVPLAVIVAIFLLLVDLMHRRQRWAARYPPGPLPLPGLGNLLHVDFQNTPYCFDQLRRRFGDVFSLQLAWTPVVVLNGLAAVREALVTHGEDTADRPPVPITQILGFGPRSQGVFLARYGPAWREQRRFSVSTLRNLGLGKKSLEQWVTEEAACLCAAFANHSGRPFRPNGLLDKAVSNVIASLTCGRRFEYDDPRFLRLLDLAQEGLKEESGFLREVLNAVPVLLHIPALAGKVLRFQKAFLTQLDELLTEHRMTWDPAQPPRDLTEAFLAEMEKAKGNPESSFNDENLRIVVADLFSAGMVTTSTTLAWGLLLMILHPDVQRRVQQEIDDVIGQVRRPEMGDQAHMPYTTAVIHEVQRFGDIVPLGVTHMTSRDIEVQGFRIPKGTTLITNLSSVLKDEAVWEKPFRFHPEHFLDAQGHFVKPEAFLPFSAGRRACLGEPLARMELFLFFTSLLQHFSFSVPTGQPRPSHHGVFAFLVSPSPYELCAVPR

SMILES: CN(C)CCC=C1c2ccccc2COc2ccccc21 [doxepin]
- strength of inhibition of the CYP2D6 enzyme system (CYP2D6 enzyme system): moderate

SMILES: CN[C@H]1CC[C@@H](c2ccc(Cl)c(Cl)c2)c2ccccc21 [sertraline]
- strength of inhibition of the CYP2D6 enzyme system (CYP2D6 enzyme system): moderate

SMILES: O=C(CCCN1CCC(O)(c2ccc(Cl)cc2)CC1)c1ccc(F)cc1 [haloperidol]
- strength of inhibition of the CYP2D6 enzyme system (CYP2D6 enzyme system): moderate

- patients reporting mild (grade 1) hot flashes (223 patients): 40%
- patients reporting moderate (grade 2) hot flashes (223 patients): 15%
- patients reporting severe (grade 3) hot flashes (223 patients): 5%
- % of patients who developed moderate or severe hot flashes (CYP2D6 (*4) *4/Wt genotype): 9/40 (23%)
- % of patients who developed moderate or severe hot flashes (CYP2D6 (*4) Wt/Wt genotype): 27/137 (20%)
- % of patients who developed moderate or severe hot flashes (CYP2D6 *4/WT or WT/WT genotypes (n=177)): 20%
- % of patients who developed moderate or severe hot flashes (CYP3A5 (*3) A/A genotype): 1/6 (17%)
- % of patients who developed moderate or severe hot flashes (CYP3A5 (*3) G/A genotype): 6/24 (25%)
- % of patients who developed moderate or severe hot flashes (CYP3A5 (*3) G/G genotype): 37/175 (21%)
SMILES: CC/C(=C(\c1ccccc1)c1ccc(OCCN(C)C)cc1)c1ccccc1 [tamoxifen]
- 9 year RFS rate ([1]; Goetz index high risk): 46%
- 9 year RFS rate ([1]; Goetz index intermediate risk): 65%
- 9 year RFS rate ([1]; Goetz index low risk): 87%
- 5-year DFS ([1]; risk profile 1: 2-gene ratio <−1.339, CYP2D6 extensive): 94%
- 5-year DFS ([1]; risk profile 3: 2-gene ratio >−1.339, CYP2D6 extensive): 83%
- 5-year DFS ([1]; risk profile 4: 2-gene ratio >−1.339, CYP2D6 decreased): 57%
- Kaplan-Meier estimate for the 5 year DFS [1, 2]: 74.3%
- Kaplan-Meier estimate for the 5 year OS [1, 2]: 78.2%
- Kaplan-Meier estimate for the 5 year RFS [1, 2]: 75.6%

SMILES: Fc1ccc([C@@H]2CCNC[C@H]2COc2ccc3c(c2)OCO3)cc1 [paroxetine]
- strength of inhibition of the CYP2D6 enzyme system (CYP2D6 enzyme system): potent

SMILES: CN/C(=N/CCSCc1nc[nH]c1C)NC#N [cimetidine]
- strength of inhibition of the CYP2D6 enzyme system (CYP2D6 enzyme system): moderate
